Measurements from patent US20250235486A1, “Method of Producing Insulin-Producing Cells” (Monash University, priority 2022, published 2025).

Legend:
Assay type in all cases: cell-based
[1] = tested on: Human immortalised ductal cell line; test: qRT-PCR gene expression in human immortalised ductal cell line; settings: ursolic acid 1, 2.5 or 5 μM; GSK126 5, 10 or 20 μM
Description: Human immortalised ductal cell line (Catalog #: T0018001, Addexbio) was cultured and assayed in Keratinocyte SFM (serum-free medium) (Catalog number 17005042, ThermoFisher Scientific, USA). Pharmacological inhibition of EZH2 and gene expression analysis were performed as described in Example 1.

[2] = tested on: human pancreatic exocrine cells; test: qRT-PCR gene expression in ex vivo pancreatic exocrine cells from non-diabetic and type 1 diabetic donors
Description: Islets were purified by intraductal perfusion and digestion of the pancreases with collagenase AF-1 (SERVA/Nordmark, Germany) (Ricordi C et al. Automated method for isolation of human pancreatic islets. Diabetes 37, 413-420 (1988)), followed by purification using Ficoll density gradients (Barbaro B, et al. Improved human pancreatic islet purification with the refined UIC—UB density gradient. Transplantation 84, 1200-1203 (2007)). Purified islets, from low density gradient fractions, and acinar/ductal tissue, from high density fractions, were cultured in Miami Media 1A (Mediatech/Corning 98-021, USA) supplemented with 2.5% human serum albumin (Australian Red Cross, Melbourne, VIC, Australia), in a 37° C., 5% CO2 incubator.
Total RNA from human ex vivo pancreatic cells was isolated using TRIzol (Invitrogen) and RNeasy Kit (QIAGEN) including a DNase treatment. First-strand cDNA synthesis was performed using a high-capacity cDNA Reverse Transcription Kit (Applied Biosystems) according to the manufacturer's instructions. cDNA primers were designed using oligoperfect designer (Thermo Fisher Scientific), as shown in Table 2 and Table 3. Briefly, quantitative RT-PCR analyses were undertaken using the PrecisionFast 2× qPCR Master Mix (Primerdesign) and primers using Applied Biosystems 7500 Fast Real-Time PCR System. Each qPCR reaction contained: 6.5 μl qPCR Master Mix, 0.5 μl of forward and reverse primers, 3.5 μl H2O and 2 μl of previously synthesised cDNA, diluted 1/20. Expression levels of specific genes were tested and normalised to 18s ribosomal RNA housekeeping gene.
All cell incubations were performed in Miami Media 1A (Mediatech/Corning 98-021, USA) supplemented with 2.5% human serum albumin (Australian Red Cross, Melbourne, VIC, Australia), in a cell culture incubator at 37° C. in an atmosphere of 5% CO2 for 48 hr using non-treated 6 well culture plates (Corning).

[3] = tested on: human exocrine (acinar and ductal) cells; test: qRT-PCR gene expression in human exocrine (acinar and ductal) cells from a non-diabetic donor; settings: 48 hours: GSK126 10 μM, CPI-1205 5 μM, ursolic acid 5 μM, GSK343 5 μM, EPZ-6438 5 μM
Description: Exocrine cells from a non-diabetic human and a marmoset were cultured and assayed in Miami/CMRL medium. The human exocrine cells were sourced from the Islet Transplant Unit of St Vincent's Institute for Medical Research. The marmoset exocrine cells were sourced from the Australian Regenerative Medicine Institute (ARMI), Monash University. Miami media is based on CMRL 1066 media (Connaught Medical Research Lab) supplemented with: Insulin, Transferrin & Selenium (ITS), human serum, Vitamin E, sodium pyruvate, zinc and HEPES. Pharmacological inhibition of EZH2 and gene expression analysis were performed as described in Example 1.

[4] = tested on: Human pancreatic ductal epithelial cells; test: qRT-PCR after 2- and 7-day EZH2 inhibitor stimulation of human pancreatic ductal epithelial cells; settings: GSK-126 10 μM
Description: Human pancreatic ductal epithelial cells were purchased from AddexBio and cultured according to the recommended protocols. Cells were cultured in complete Keratinocyte Serum-Free Media (supplemented with human recombinant EGF, Bovine Pituitary Extract and Antibiotic-Antimycotic [Gibco]. All cell cultures were grown and maintained in a 37° C., 5% C02 environment using a tissue culture incubator. Once cells reached 70-80% confluency, passaging was performed using 0.05% Trypsin EDTA (Sigma). […] Vehicle control was DMSO. Cells were treated over 2 main timepoints, with harvests occurring following 2, and 7 days. For the 2-day time point, cells were seeded and left to adhere in plates for 24 hours. Treatment was initiated with the first dose made up in complete K-SFM. The second dose was delivered 24 hours later following a media change. For the longer period of 7 days, cells were initially seeded in 10 cm plates, with doses delivered on alternate days following the initial period of 24 hours. […] Ct values of experimental genes were normalized to housekeeping gene [MUT]. Fold change of mRNA abundance was calculated by normalizing drug treated values to vehicular controls. […] RNA was isolated using the RNeasy Kit according to the manufacturer's directions. Following measurement of RNA concentration using a QIAxpert System, 1 μg of RNA was used for cDNA synthesis by a high-capacity cDNA Reverse Transcription Kit (Applied Biosystems). The resulting cDNA reaction mix was diluted 1:6 to make up the final template cDNA used subsequently. […] Ct values of experimental genes were normalized to housekeeping gene [MUT]. Fold change of mRNA abundance was calculated by normalizing drug treated values to vehicular controls.

[5] = tested on: H3K27me3 content at promoters in human exocrine cells; test: Chromatin immunoprecipitation (anti-H3K27me3) qPCR in exocrine cells of a non-diabetic donor; settings: GSK126 vs DMSO
Description: Chromatin immunoprecipitation assays in human exocrine cells were performed previously described (Rafehi H, et al. Vascular histone deacetylation by pharmacological HDAC inhibition. Genome Res 24, 1271-1284 (2014); Pirola L, et al. Genome-wide analysis distinguishes hyperglycemia regulated epigenetic signatures of primary vascular cells. Genome Res 21, 1601-1615 (2011)). Cells were fixed for 10 minutes with 1% formaldehyde and quenched for 10 mins with glycine (0.125 M) solution. Fixed cells were resuspended in sodium dodecyl (lauryl) sulfate (SDS) lysis buffer (1% SDS, 10 mM EDTA, 50 mM Tris-HCl pH 8.1) including a protease inhibitor cocktail (Roche Diagnostics GmBH, Mannheim, Germany) and homogenized followed by incubation on ice for 5 minutes. […] H3K27me3 content at the promoters of the INS, INS-IGF2, NGN3 and PDX1 genes were assessed by qPCR using primers designed from the integrative ENCODE resource (Zhang J, et al. An integrative ENCODE resource for cancer genomics. Nat Commun 11, 3696 (2020)).
Proteins were cross-linked to DNA and soluble chromatin fractionated by sonication. […] DNA was assessed by qPCR using amplimers specifically designed to detect human Ins chromatin domain genes (FIG. 5a). […]

[6] = tested on: Human pancreatic ductal epithelial cells; test: Glucose stimulated insulin secretion assay (ELISA)
Description: 5×10^5 cells were seeded in 12-well plates and allowed to adhere for 24 hours. […] Next, cells were cultured in 28 mM (High) glucose Krebs Buffer solution and incubated for 1 hour to obtain the glucose stimulated insulin secretion. Supernatant was collected and Ultrasensitive Insulin ELISA (Mercodia) was used to determine the concentration of insulin according to manufacturer's instructions. Fold change of insulin secreted by cells were calculated by adjusting to cells stimulated with EZH2 inhibitors for insulin concentrations compared to control.

[7] = 10 mM GSK126 (so in the source), 48 hr
[8] = 10 mM GSK126 (so in the source), 48 hr, non-diabetic and T1D donors
[9] = 2 days, EPZ6438 1 μM, Triptolide 20 nM
[10] = 7 days, EPZ6438 1 μM, Triptolide 20 nM

SMILES: CC[C@H](C)n1cc(C)c2c(C(=O)NCc3c(C)cc(C)[nH]c3=O)cc(-c3ccc(N4CCNCC4)nc3)cc21 [GSK126, N-[(1,2-Dihydro-4,6-dimethyl-2-oxo-3-pyridinyl)methyl]-3-methyl-1-[(1S)-1-methylpropyl]-6-[6-(1-piperazinyl)-3-pyridinyl]-1H-indole-4-carboxamide]
- Insulin mRNA expression [1]: stimulated expression
- Ngn3 mRNA expression [1]: stimulated expression
- Pdx1 mRNA expression [1]: stimulated expression
- Amy2A (acinar marker) expression [2, 7]: did not significantly alter
- Ck19 (ductal marker) expression [2, 7]: did not significantly alter
- Ki67 (proliferative marker) expression [2, 7]: increased
- Txnip (glucose-sensor) expression [2, 7]: did not significantly alter
- Ins gene expression [2, 8]: significant expression
- Ngn3 mRNA expression [2, 8]: restored
- Pdx1 mRNA expression [2, 8]: restored
- Sox9 mRNA expression [2, 8]: restored
- MafA gene expression ([2]; ex vivo exocrine cells, GSK126): restored
- Nkx6.1 gene expression ([2]; ex vivo exocrine cells, GSK126): restored
- Sox11 gene expression ([2]; ex vivo exocrine cells, GSK126): restored
- mRNA expression of Insulin, Pdx1 and Ngn3 [3]: stimulated expression of one, two or all of Insulin, Pdx1 and Ngn3
- MAFA mRNA levels ([4]; 2-day point, Triptolide 20 nM): increased in a statistically significant manner
- Alpha-amylase (AMY2A) transcripts ([4]; 2 days): increased significantly
- CK19 expression [4, 9]: statistically significant decreases
- NGN3 mRNA levels [4, 9]: significantly elevated
- insulin transcripts, mature mRNA (INS) [4, 9]: elevations
- insulin transcripts, unprocessed heterogenous nuclear form (INS hnRNA) [4, 9]: elevations
- NGN3 mRNA levels [4, 10]: Further increases
- insulin transcripts, mature mRNA (INS) [4, 10]: even further increases
- insulin transcripts, unprocessed heterogenous nuclear form (INS hnRNA) [4, 10]: even further increases
- H3K27me3 content at the Ins and Igf2AS promoter (R1-R3) regions ([5]; non-diabetic donor (2)): Significant reduction
- H3K27me3 content on the Ngn3 promoter R1 ([5]; non-diabetic exocrine cells): marginally affected
- insulin concentration after incubation in high-glucose media (28 mM glucose, 1 hour) ([6]; 2-day stimulation (FIG. 13d), GSK126 10 μM, EPZ6438 1 μM, Triptolide 20 nM, not observed in DMSO control): significant elevations
- Release of insulin (glucose stimulated) ([6]; 7 days stimulation (FIG. 13e)): maintained
